Laboratory results published in patent publication US20260198495A1, “BINARY INSECTICIDE COMPOSITION AND USE THEREOF” (SHENYANG SINOCHEM AGROCHEMICALS R & D CO., LTD., priority 2022, published 2026).

Assays:
Type in all cases: in vivo
[1] = test system: 3rd-instar larvae of Spodoptera frugiperda; test: Joint toxicity of I-72 + indoxacarb, corn leaf dipping, Example 3, Table 3; settings: Spodoptera frugiperda, foliar, 72 h, A = compound I-72, B = indoxacarb, read-out: LC50
Source text: Test subject: 3rd-instar larvae of Spodoptera frugiperda, a sensitive strain reared indoors.
Experimental method: the dipping method was adopted. The corn leaves cultivated in the greenhouse were taken, cut into leaf segments of 5 cm long, dipped in the prepared pesticide solution for 10 s, and then cut into small pieces of 1.5 cm×1.5 cm after natural air-drying in the shade. These pieces were placed in a 24-well culture plate, and the standard test insects were introduced, with 48 insects for each treatment. The treated test insects were placed in an observation room under certain conditions. The reaction of the test insects was regularly observed, and the number of dead and live insects was investigated 72 h later.
The test conditions, the preparation method of the pesticide solution, and the evaluation method (Sun Y-P) for the joint action type of the mixture were the same as those in Example 1.

[2] = test system: 3rd-instar larvae of Pyrausta nubilalis Hubern; test: Synergism assay (Bliss) of I-72 + cartap, monosultap, bisultap, Example 5, Table 5; settings: Ostrinia nubilalis, 72 h, read-out: Mortality rate (%)
Method: Test subject: 3rd-instar larvae of Pyrausta nubilalis Hubern, a sensitive strain reared indoors.
Test conditions: temperature: 24-26° C., humidity: RH 60%, and illumination: L:D=14:10
Preparation method: the test pesticides were accurately weighed respectively with an electronic analytical balance. After the two technical materials were respectively added into an appropriate amount of solvent and completely dissolved, the stock solution of the required concentration was prepared with water containing 0.1% Tween 80. The stock solutions of the two active ingredients were mixed in a certain ratio to prepare a mixed solution, which was then diluted respectively into a series of pesticide solutions with a certain concentration gradient according to the experimental design dosage.
Experimental method: the artificial diet-pesticide film method was adopted. A standard clean 24-well culture plate was selected. 1 ml of artificial diet was added to each well. After the diet cooled and solidified, a quantitative amount of a pesticide solution was added to the culture plate using a continuous sampler, and then it was air-dried naturally in the shade. The standard test insects were introduced, with 1 insect in each well, a total of 48 insects. The treated test insects were placed in an observation room under certain conditions. The reaction of the test insects was regularly observed, and the number of dead and live insects was investigated 72 h later.
The evaluation method adopted was the Bliss method. This method is applicable to the qualitative screening of insecticidal compositions. According to the concept of independent joint action he proposed, Bliss believes that the theoretical mortality rate P when insecticides are used in combination can be calculated by the following formula: […]
Pm is the mortality rate (%) of the target when the first active ingredient is at a concentration of m; and Pn is the mortality rate (%) of the target when the second active ingredient is at a concentration of n.
(§1) If the actual mortality rate of the target after the two active ingredients are mixed at a certain concentration is greater than theoretical mortality rate P, it is determined that the two active ingredients have a synergistic effect when used in combination at the set concentration, and otherwise, they have an antagonistic effect.

[3] = test system: Liriomyza sativae Blanchard larvae; test: Joint toxicity of I-72 + cyromazine, Example 55, Table 55; settings: A = compound I-72, B = cyromazine, kidney bean seedling spraying, counted after blank control larvae pupated, read-out: LC50
Method: Test target: Liriomyza sativae Blanchard larvae.
(§2) Preparation of the pesticide solution: according to different test requirements, the test samples were accurately weighed respectively with an electronic analytical balance. The technical pesticides were dissolved in acetone, and then diluted with 0.1% Tween 80 water into a series of pesticide solutions with a certain concentration gradient according to the experimental design dosage.
Experimental method: first, kidney bean seedlings with the Liriomyza sativae Blanchard larvae (the larvae had just invaded and formed mines) were selected. Spraying treatments were performed in the order from low dosage to high dosage according to the experimental design, with 3 replicates for each treatment. In addition, a blank control was set up.
(§3) The treated test materials were placed in an observation room, and the temperature, humidity and illumination of the observation room could be adjusted as needed. After the larvae in the blank control group pupated, the numbers of dead and live insects were then counted. […] Then, the co-toxicity coefficient of each ratio was calculated using the Sun Y-P method to evaluate the mixing effect (the same as in Example 1).

[4] = test system: Sitobion miscanthi (Fabricius); test: whole plant or invertebrate; settings: Sitobion miscanthi, in Triticum aestivum; single pesticide, 10 mg/L; 48 hours; read-out: Measured mortality rate
Method: Test target: Sitobion miscanthi (Fabricius).
as §2
Experimental method: first, wheat seedlings with uniform and consistent Sitobion miscanthi (Fabricius) were selected, with about 30-40 insects on each pot of wheat. Then, they were evenly sprayed with the pesticide solution in the order from low dosage to high dosage according to the experimental design, with 2.5 mL for each pot and 3 replicates for each treatment. In addition, a blank control CK was set up.
The treated test materials were placed in an observation room, and the temperature, humidity and illumination of the observation room could be adjusted as needed. The number of dead and alive insects was investigated 48 hours later, and the corrected mortality rate was calculated using the Abbott's formula.
The synergism of the mixture was evaluated by the Bliss method. According to the concept of independent joint action he proposed, Bliss believes that the theoretical mortality rate P when insecticides are used in combination can be calculated by the following formula: […]
Pm is the measured mortality rate (%) of the target when the first active ingredient is at a concentration of m; and Pn is the measured mortality rate (%) of the target when the second active ingredient is used at a concentration of n.
as §1

[5] = test system: Nilaparvata lugens (Stal) nymphs; test: Joint toxicity of I-72 + etofenprox, Example 44, Table 44; settings: A = compound I-72, B = etofenprox, potted rice seedling spraying, 72 hours, read-out: LC50
Method: Test target: Nilaparvata lugens (Stal) nymphs, a sensitive strain reared indoors.
as §2
Experimental method: the activity of the mixture against the Nilaparvata lugens (Stal) nymphs was determined by adopting the potted-seedling spraying method. First, rice seedlings were planted in culture pots. Uniform spraying was performed with the pesticide solution in the order from low dosage to high dosage according to the experimental design, with 2 mL for each seedling. Then, Nilaparvata lugens nymphs of uniform size were transferred onto the rice seedlings, with 3 replicates for each treatment. In addition, a blank control was set up.
as §3, with “The number” for “After the larvae in the blank control group pupated, the numbers”, “was investigated 72 hours later.” for “were then counted.”

CN(C(=O)c1ccc2c(c1)OC(F)(F)O2)c1cccc(C(=O)Nc2c(Br)cc(C(F)(C(F)(F)F)C(F)(F)F)cc2OC(F)F)c1F [Compound I-72]
LC50 [1]: 0.0737 µg/mL
mortality at 0.1 µg/mL ([2]; single agent 0.1 mg/L): 22.9%
mortality at 0.5 µg/mL ([2]; single agent 0.5 mg/L): 41.7%
mortality at 1 µg/mL ([2]; single agent 1 mg/L): 60.4%
mortality at 2 µg/mL ([2]; single agent 2 mg/L): 70.8%
mortality at 5 µg/mL ([2]; single agent 5 mg/L): 87.5%
LC50 [3]: 0.501 µg/mL
mortality at 10 µg/mL [4]: 64.2%
LC50 [5]: 282 µg/mL
